# In US4399125A, “Novel antagonists of the antidiuretic action of arginine vasopressin” (priority 1981, dated 1983):
# *1 amine or outer side, *2 acyl side, *3 side chain or, on linkers, in order; H or OH if unused. Where a SMILES comes first, the peptide text is derived from it. Bridges are numbered along the chain shown (N, C = ends). [ ]: non-standard residue; d: D form. The star is where a group is joined. X1 = O=C(CC1(S[*:2])CCCCC1)[*:1]; Propyl = CCC*; iPr = CC(C)*
# Key:
# [1] = system: antidiuretic response to ADH (arginine vasopressin); assay: Antagonism of the antidiuretic response to ADH (anti-antidiuretic potency) in ethanol-anesthetized water-loaded rats; settings: estimated in vivo pA2 = negative logarithm of effective dose divided by estimated volume of distribution (67 mL/kg); (n) in parentheses
# Description: Activity as antidiuretic agonists was determined by intravenous injection of compounds being evaluated into ethanol-anesthesized water-loaded rats in accordance with Sawyer et al., Endocrinology, vol. 63 (1958) at 694.
# (§1) Antagonistic potencies were determined and expressed as "effective doses" and as pA2 values. The "effective dose" is defined as the dose (in nanomoles per kilogram) that reduces the response seen from 2x units of agonist injected 20 min after the dose of antagonist to the response with 1x units of agonist.
# [2] = system: vasopressor response to AVP; assay: Antagonism to the vasopressor response (Dyckes et al.); settings: estimated in vivo pA2 (Schild); effective dose / 67 mL/kg; (n) in parentheses
# Description: Antagonism to the vasopressor response was estimated in accordance with Dyckes et al., J. Med. Chem., vol. 17 (1974) at 969. The values are expressed as pA2 values, defined by Schild et al., Br. J. Pharmacol., vol. 2 (1947) at 189.
# as §1
SMILES,Anti-Antidiuretic pA2 [1],Antivasopressor pA2 [2]
CCOc1ccc(C[C@H]2NC(=O)CC3(CCCCC3)SSC[C@@H](C(=O)N3CCC[C@H]3C(=O)N[C@@H](CCCNC(=N)N)C(=O)NCC(N)=O)NC(=O)[C@H](CC(N)=O)NC(=O)[C@H](C(C)C)NC(=O)[C@H](Cc3ccccc3)NC2=O)cc1 [d(CH2)5 --D-Tyr(Et) VAVP] ([dY](Et)FVNCPRG-NH2; linker N-5 via X1),7.81 ± 0.07,8.22 ± 0.12
COc1ccc(C[C@H]2NC(=O)CC3(CCCCC3)SSC[C@@H](C(=O)N3CCC[C@H]3C(=O)N[C@@H](CCCNC(=N)N)C(=O)NCC(N)=O)NC(=O)[C@H](CC(N)=O)NC(=O)[C@H](C(C)C)NC(=O)[C@H](Cc3ccccc3)NC2=O)cc1 [d(CH2)5 --D-Tyr(Me) VAVP] ([dY](Me)FVNCPRG-NH2; linker N-5 via X1),7.77 ± 0.07,8.48 ± 0.08
"CC(C)[C@@H]1NC(=O)[C@H](Cc2ccccc2)NC(=O)[C@@H](Cc2ccccc2)NC(=O)CC2(CCCCC2)SSC[C@@H](C(=O)N2CCC[C@H]2C(=O)N[C@@H](CCCNC(=N)N)C(=O)NCC(N)=O)NC(=O)[C@H](CC(N)=O)NC1=O [d(CH2)5 D-Phe VAVP, [1-(β-mercapto-β,β-cyclopentamethylenepropionicacid), 2-D-phenylalanine, 4-valine]-arginine vasopressin] ([dF]FVNCPRG-NH2; linker N-5 via X1)",8.07 ± 0.09,8.06 ± 0.03
"CC(C)[C@@H]1NC(=O)[C@H](Cc2ccccc2)NC(=O)[C@@H](Cc2ccccc2)NC(=O)CC2(CCCCC2)SSC[C@@H](C(=O)N2CCC[C@H]2C(=O)N[C@H](CCCNC(=N)N)C(=O)NCC(N)=O)NC(=O)[C@H](CC(N)=O)NC1=O [d(CH2)5 D-Phe VDAVP, [1-(β-mercapto-β,β-cyclopentamethylenepropionic acid), 2-D-phenylalanine, 4-valine, 8-D-arginine] vasopressin] ([dF]FVNCP[dR]G-NH2; linker N-5 via X1)",7.07 ± 0.10,7.98 ± 0.07
"CC(C)[C@@H]1NC(=O)[C@H](Cc2ccccc2)NC(=O)[C@@H](Cc2ccc(O)cc2)NC(=O)CC2(CCCCC2)SSC[C@@H](C(=O)N2CCC[C@H]2C(=O)N[C@@H](CCCNC(=N)N)C(=O)NCC(N)=O)NC(=O)[C@H](CC(N)=O)NC1=O [d(CH2)5 D-Tyr VAVP, [1-(β-mercapto-β,β-cyclopentamethylenepropionic acid), 2-D-tyrosine, 4-valine]-arginine vasopressin] ([dY]FVNCPRG-NH2; linker N-5 via X1)",7.51 ± 0.08,8.41 ± 0.11
CCOc1ccc(C[C@@H]2NC(=O)CC3(CCCCC3)SSC[C@@H](C(=O)N3CCC[C@H]3C(=O)N[C@@H](CCCNC(=N)N)C(=O)NCC(N)=O)NC(=O)[C@H](CC(N)=O)NC(=O)[C@H](C(C)C)NC(=O)[C@H](Cc3ccccc3)NC2=O)cc1 [d(CH2)5 Tyr(Et) VAVP] (Y(Et)FVNCPRG-NH2; linker N-5 via X1),7.57 ± 0.06,8.16 ± 0.09
CCOc1ccc(C[C@@H]2NC(=O)CC3(CCCCC3)SSC[C@@H](C(=O)N3CCC[C@H]3C(=O)N[C@H](CCCNC(=N)N)C(=O)NCC(N)=O)NC(=O)[C@H](CC(N)=O)NC(=O)[C@H](C(C)C)NC(=O)[C@H](Cc3ccccc3)NC2=O)cc1 [d(CH2)5 Tyr(Et) VDAVP] (Y(Et)FVNCP[dR]G-NH2; linker N-5 via X1),7.10 ± 0.08,8.31 ± 0.05
COc1ccc(C[C@@H]2NC(=O)CC3(CCCCC3)SSC[C@@H](C(=O)N3CCC[C@H]3C(=O)N[C@@H](CCCNC(=N)N)C(=O)NCC(N)=O)NC(=O)[C@H](CC(N)=O)NC(=O)[C@H](C(C)C)NC(=O)[C@H](Cc3ccccc3)NC2=O)cc1 [d(CH2)5 Tyr(Me) VAVP] (Y(Me)FVNCPRG-NH2; linker N-5 via X1),7.35 ± 0.06,8.32 ± 0.08
"COc1ccc(C[C@@H]2NC(=O)CC3(CCCCC3)SSC[C@@H](C(=O)N3CCC[C@H]3C(=O)N[C@H](CCCNC(=N)N)C(=O)NCC(N)=O)NC(=O)[C@H](CC(N)=O)NC(=O)[C@H](C(C)C)NC(=O)[C@H](Cc3ccccc3)NC2=O)cc1 [d(CH2)5 Tyr(Me) VDAVP, [1-(β-mercapto-β,β-cyclopentamethylenepropionic acid), 2-O-methyltyrosine, 4-valine, 8-D-arginine] vasopressin] (Y(Me)FVNCP[dR]G-NH2; linker N-5 via X1)",6.68 ± 0.11,8.44 ± 0.07
CC(C)Oc1ccc(C[C@@H]2NC(=O)CC3(CCCCC3)SSC[C@@H](C(=O)N3CCC[C@H]3C(=O)N[C@@H](CCCNC(=N)N)C(=O)NCC(N)=O)NC(=O)[C@H](CC(N)=O)NC(=O)[C@H](C(C)C)NC(=O)[C@H](Cc3ccccc3)NC2=O)cc1 [d(CH2)5 Tyr(i-Pr) VAVP] (Y(iPr)FVNCPRG-NH2; linker N-5 via X1),7.32 ± 0.06,8.36 ± 0.09
CC(C)Oc1ccc(C[C@@H]2NC(=O)CC3(CCCCC3)SSC[C@@H](C(=O)N3CCC[C@H]3C(=O)N[C@H](CCCNC(=N)N)C(=O)NCC(N)=O)NC(=O)[C@H](CC(N)=O)NC(=O)[C@H](C(C)C)NC(=O)[C@H](Cc3ccccc3)NC2=O)cc1 [d(CH2)5 Tyr(i-Pr) VDAVP] (Y(iPr)FVNCP[dR]G-NH2; linker N-5 via X1),6.88 ± 0.07,8.41 ± 0.08
CCCOc1ccc(C[C@@H]2NC(=O)CC3(CCCCC3)SSC[C@@H](C(=O)N3CCC[C@H]3C(=O)N[C@@H](CCCNC(=N)N)C(=O)NCC(N)=O)NC(=O)[C@H](CC(N)=O)NC(=O)[C@H](C(C)C)NC(=O)[C@H](Cc3ccccc3)NC2=O)cc1 [d(CH2)5 Tyr(n-Pr) VAVP] (Y(Propyl)FVNCPRG-NH2; linker N-5 via X1),7.29 ± 0.07,8.22 ± 0.04
CCCOc1ccc(C[C@@H]2NC(=O)CC3(CCCCC3)SSC[C@@H](C(=O)N3CCC[C@H]3C(=O)N[C@H](CCCNC(=N)N)C(=O)NCC(N)=O)NC(=O)[C@H](CC(N)=O)NC(=O)[C@H](C(C)C)NC(=O)[C@H](Cc3ccccc3)NC2=O)cc1 [d(CH2)5 Tyr(n-Pr) VDAVP] (Y(Propyl)FVNCP[dR]G-NH2; linker N-5 via X1),6.67 ± 0.05,7.86 ± 0.10
"CC(C)[C@@H]1NC(=O)[C@H](Cc2ccccc2)NC(=O)[C@@H](C)NC(=O)CC2(CCCCC2)SSC[C@@H](C(=O)N2CCC[C@H]2C(=O)N[C@@H](CCCNC(=N)N)C(=O)NCC(N)=O)NC(=O)[C@H](CC(N)=O)NC1=O [d(CH2)5 [D-Ala^2] VAVP, [1-(β-mercapto-β,β-cyclopentamethylenepropionic acid), 2-D-alanine, 4-valine]-arginine vasopressin] ([dA]FVNCPRG-NH2; linker N-5 via X1)",–,5.79 ± 0.08
"CC(C)[C@@H]1NC(=O)[C@H](Cc2ccccc2)NC(=O)[C@@H](CCCNC(=N)N)NC(=O)CC2(CCCCC2)SSC[C@@H](C(=O)N2CCC[C@H]2C(=O)N[C@@H](CCCNC(=N)N)C(=O)NCC(N)=O)NC(=O)[C@H](CC(N)=O)NC1=O [d(CH2)5 [D-Arg^2] VAVP, [1-(β-mercapto-β,β-cyclopentamethylenepropionic acid), 2-D-arginine, 4-valine]-arginine vasopressin] ([dR]FVNCPRG-NH2; linker N-5 via X1)",< 5.9,~ 5.4
"CC[C@@H](C)[C@H]1NC(=O)CC2(CCCCC2)SSC[C@@H](C(=O)N2CCC[C@H]2C(=O)N[C@@H](CCCNC(=N)N)C(=O)NCC(N)=O)NC(=O)[C@H](CC(N)=O)NC(=O)[C@H](C(C)C)NC(=O)[C@H](Cc2ccccc2)NC1=O [d(CH2)5 [D-Ile^2] VAVP, [1-(β-mercapto-β,β-cyclopentamethylenepropionic acid), 2-D-isoleucine, 4-valine]-arginine vasopressin] ([dI]FVNCPRG-NH2; linker N-5 via X1)",7.98 ± 0.05,6.94 ± 0.08
"CC(C)C[C@H]1NC(=O)CC2(CCCCC2)SSC[C@@H](C(=O)N2CCC[C@H]2C(=O)N[C@@H](CCCNC(=N)N)C(=O)NCC(N)=O)NC(=O)[C@H](CC(N)=O)NC(=O)[C@H](C(C)C)NC(=O)[C@H](Cc2ccccc2)NC1=O [d(CH2)5 [D-Leu^2] VAVP, [1-(β-mercapto-β,β-cyclopentamethylenepropionic acid), 2-D-leucine, 4-valine]-arginine vasopressin] ([dL]FVNCPRG-NH2; linker N-5 via X1)",7.79 ± 0.12,6.45 ± 0.09
"CC(C)[C@@H]1NC(=O)[C@H](Cc2ccccc2)NC(=O)[C@@H](C(C)C)NC(=O)CC2(CCCCC2)SSC[C@@H](C(=O)N2CCC[C@H]2C(=O)N[C@@H](CCCNC(=N)N)C(=O)NCC(N)=O)NC(=O)[C@H](CC(N)=O)NC1=O [d(CH2)5 [D-Val^2] VAVP, [1-(β-mercapto-β,β-cyclopentamethylenepropionic acid), 2-D-valine, 4-valine]-arginine vasopressin] ([dV]FVNCPRG-NH2; linker N-5 via X1)",7.48 ± 0.06,6.41 ± 0.05
